The values that follow come from PubChem BioAssay AID330 (DTP/NCI, 2004).

SMILES strings stand for the structures. “And” between values parts separate entries of the source, which are not always exact repeats. Equal values may be shown once. Toxic doses and inconclusive results are not listed.

The test system of this test is P388 leukemia ip, CD2F1 mice, survival T/C. The test is described as follows: NCI In Vivo Anticancer Drug Screen. Data for tumor model P388 Leukemia (intraperitoneal) in CD2F1 (CDF1) mice. The note with it: endpoint: median survival time, higher = longer survival. In short, it runs like this: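 Mice carrying the transplanted tumor received test compound or vehicle. Survival was recorded in each group, and the value is the treated-group measurement divided by that of the vehicle-treated control group.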

[1] abbreviates: dose: 25.0 mg/kg/injection, schedule: Q01DX009 (ip), vehicle: Klucel (hydroxypropylcellulose) (HPC).
The mark [2] stands for this setting: dose: 50.0 mg/kg/injection, schedule: Q01DX009 (ip), vehicle: Klucel (hydroxypropylcellulose) (HPC).
Where [3] appears, read: dose: 100.0 mg/kg/injection, schedule: Q01DX009 (ip), vehicle: Klucel (hydroxypropylcellulose) (HPC).
[4] abbreviates: dose: 200.0 mg/kg/injection, schedule: Q01DX009 (ip), vehicle: Klucel (hydroxypropylcellulose) (HPC).
Where [5] appears, read: dose: 50.0 mg/kg/injection, schedule: Q01DX005 (ip), vehicle: Klucel (hydroxypropylcellulose) (HPC).
The mark [6] stands for this setting: dose: 100.0 mg/kg/injection, schedule: Q01DX005 (ip), vehicle: Klucel (hydroxypropylcellulose) (HPC).
Where [7] appears, read: dose: 200.0 mg/kg/injection, schedule: Q01DX005 (ip), vehicle: Klucel (hydroxypropylcellulose) (HPC).
Setting [8] is: dose: 50.0 mg/kg/injection, schedule: Q01DX005 (ip), vehicle: saline.
[9] abbreviates: dose: 100.0 mg/kg/injection, schedule: Q01DX005 (ip), vehicle: saline.
[10] abbreviates: dose: 200.0 mg/kg/injection, schedule: Q01DX005 (ip), vehicle: saline.

`CC12C=CC(C)(C3C(=O)NC(=O)C31)C1C3C(=O)NC(=O)C3C12` (centres undefined): the T/C reads like this: under setting [1], 106 % of control; under setting [2], 109 % of control; under setting [3], 106 % of control; under setting [4], 109 % of control.
On to `Oc1cccc(NCNC2Nc3ccccc3N2)c1`, for which the T/C reads like this: (dose: 15.0 mg/kg/injection, schedule: Q01DX005 (ip), vehicle: saline with Tween-80) 94 % of control; (dose: 30.0 mg/kg/injection, schedule: Q01DX005 (ip), vehicle: saline with Tween-80) 95 % of control.
On to `FC(F)(F)c1cc([C@H]2[C@@H]3CCCCN32)c2cccc(C(F)(F)F)c2n1` (some centres undefined), for which the T/C (dose: 12.5 mg/kg/injection, schedule: Q04DX003 (ip), vehicle: distilled water + Tween-80) was 93 % of control; the T/C (dose: 25.0 mg/kg/injection, schedule: Q04DX003 (ip), vehicle: distilled water + Tween-80) was 97 % of control; the T/C (dose: 50.0 mg/kg/injection, schedule: Q04DX003 (ip), vehicle: distilled water + Tween-80) was 96 % of control; the T/C (dose: 100.0 mg/kg/injection, schedule: Q04DX003 (ip), vehicle: distilled water + Tween-80) is 95 % of control; the T/C (dose: 200.0 mg/kg/injection, schedule: Q04DX003 (ip), vehicle: distilled water + Tween-80) was 99 % of control; the T/C (dose: 400.0 mg/kg/injection, schedule: Q04DX003 (ip), vehicle: distilled water + Tween-80) was 103 % of control.
Consider `CN(C)c1ccc(N=Nc2cc3c4ccccc4ccc3c3ccccc23)cc1`, for which the T/C under setting [2] is 109 % of control, the T/C under setting [3] was 114 % of control and the T/C under setting [4] was 117 % of control.
Turning to `O=C1c2ccccc2C(=O)N1Cc1ccccc1Br`, the T/C was 103 % of control under setting [5], 101 % of control under setting [6] and 100 % of control under setting [7].
As for `c1ccc(CSc2nn[nH]n2)cc1`, the T/C runs as follows: (dose: 100.0 mg/kg/injection, schedule: Q04DX003 (ip), vehicle: Klucel (hydroxypropylcellulose) (HPC)) 96 % of control; (dose: 200.0 mg/kg/injection, schedule: Q04DX003 (ip), vehicle: Klucel (hydroxypropylcellulose) (HPC)) 102 % of control; (dose: 400.0 mg/kg/injection, schedule: Q04DX003 (ip), vehicle: Klucel (hydroxypropylcellulose) (HPC)) 101 % of control.
With `CCCCCCC(=O)OCCN1CCN(CC/C=C2\c3ccccc3Sc3ccc(C(F)(F)F)cc32)CC1`, the T/C is 100 % of control and 95 % of control (dose: 12.5 mg/kg/injection, schedule: Q01DX009 (ip), vehicle: saline); 98 % of control (dose: 12.5 mg/kg/injection, schedule: Q01DX009 (ip), vehicle: suspension in saline); 112 % of control (dose: 25.0 mg/kg/injection, schedule: Q01DX009 (ip), vehicle: saline); 102 % of control and 94 % of control (dose: 25.0 mg/kg/injection, schedule: Q01DX009 (ip), vehicle: suspension in saline); 106 % of control and 95 % of control (dose: 50.0 mg/kg/injection, schedule: Q01DX009 (ip), vehicle: saline); 100 % of control and 123 % of control and 92 % of control (dose: 50.0 mg/kg/injection, schedule: Q01DX009 (ip), vehicle: suspension in saline). For the same compound, the T/C was 99 % of control and 113 % of control (dose: 100.0 mg/kg/injection, schedule: Q01DX009 (ip), vehicle: saline); 107 % of control (2×) and 92 % of control (dose: 100.0 mg/kg/injection, schedule: Q01DX009 (ip), vehicle: suspension in saline).
Consider `NC1=NC(=O)C(c2ccccc2)S1` (centres undefined), for which the T/C is, setting by setting: (dose: 12.5 mg/kg/injection, schedule: Q01DX009 (ip), vehicle: Klucel (hydroxypropylcellulose) (HPC)) 103 % of control; under setting [1], 99 % of control; under setting [2], 113 % of control; under setting [3], 105 % of control.
For the compound `Cc1ccc(S(=O)(=O)N/N=C/C=N/NS(=O)(=O)c2ccc(C)cc2)cc1`, the T/C is, setting by setting: (dose: 12.5 mg/kg/injection, schedule: Q01DX009 (ip), vehicle: other) 106 % of control; (dose: 25.0 mg/kg/injection, schedule: Q01DX009 (ip), vehicle: other) 107 % of control; (dose: 50.0 mg/kg/injection, schedule: Q01DX009 (ip), vehicle: other) 105 % of control; (dose: 100.0 mg/kg/injection, schedule: Q01DX009 (ip), vehicle: other) 96 % of control; (dose: 200.0 mg/kg/injection, schedule: Q01DX009 (ip), vehicle: other) 97 % of control.
In the case of `C=C(Cl)C(=NC(C)(C)C)Nc1c(Cl)cccc1Cl`, the T/C by setting is: under setting [5], 98 % of control and 95 % of control; under setting [6], 100 % of control; under setting [7], 100 % of control and 90 % of control.
Consider `CCC[CH2][Sn]([CH2]CCC)([CH2]CCC)[CH2]CC[N+](C)(C)C.CS(=O)(=O)[O-]`, for which the T/C is 100 % of control (dose: 0.78 mg/kg/injection, schedule: Q01DX009 (ip), vehicle: saline); 101 % of control (dose: 1.56 mg/kg/injection, schedule: Q01DX009 (ip), vehicle: saline); 98 % of control (dose: 3.12 mg/kg/injection, schedule: Q01DX009 (ip), vehicle: saline).
For `C=COC(=O)C(Cc1ccc(F)cc1)NC(=O)OCc1ccccc1` (centres undefined), the T/C was 103 % of control (dose: 100.0 mg/kg/injection, schedule: Q04DX002 (ip), vehicle: Klucel (hydroxypropylcellulose) (HPC)); 97 % of control (dose: 200.0 mg/kg/injection, schedule: Q04DX002 (ip), vehicle: Klucel (hydroxypropylcellulose) (HPC)); 97 % of control (dose: 400.0 mg/kg/injection, schedule: Q04DX002 (ip), vehicle: Klucel (hydroxypropylcellulose) (HPC)).
Consider `Cc1cc2c(c(C(C)(C)C)c1)OC(=O)/C2=C1/C(=O)Oc2c1cc(C)cc2C(C)(C)C`, for which the T/C by setting is: (dose: 1.87 mg/kg/injection, schedule: Q01DX005 (ip), vehicle: Klucel (hydroxypropylcellulose) (HPC)) 112 % of control; (dose: 3.75 mg/kg/injection, schedule: Q01DX005 (ip), vehicle: Klucel (hydroxypropylcellulose) (HPC)) 101 % of control; (dose: 7.5 mg/kg/injection, schedule: Q01DX005 (ip), vehicle: Klucel (hydroxypropylcellulose) (HPC)) 94 % of control; (dose: 60.0 mg/kg/injection, schedule: Q01DX005 (ip), vehicle: Klucel (hydroxypropylcellulose) (HPC)) 90 % of control.
In the case of `COc1cc(O)c(CC=C(C)C)cc1O`, the T/C runs as follows: under setting [5], 105 % of control; under setting [6], 101 % of control.
With `Nc1ccc(S(=O)(=O)Nc2nc(/C=C/c3ccccc3)cc(-c3cc(/C=C/c4ccccc4)nc(NS(=O)(=O)c4ccc(N)cc4)n3)n2)cc1`, the T/C by setting is: (dose: 60.0 mg/kg/injection, schedule: Q01DX005 (ip), vehicle: saline with Tween-80) 94 % of control; (dose: 120.0 mg/kg/injection, schedule: Q01DX005 (ip), vehicle: saline with Tween-80) 95 % of control; (dose: 240.0 mg/kg/injection, schedule: Q01DX005 (ip), vehicle: saline with Tween-80) 94 % of control.
With `CN(C)C1C(=O)C(C(=O)NCNCCC(=O)O)=C(O)C2(O)C(=O)C3=C(O)c4c(O)cccc4C(C)(O)C3CC12` (centres undefined), the T/C by setting is: under setting [8], 101 % of control; under setting [9], 94 % of control; under setting [10], 101 % of control.
Take `C=CCOC(=O)OCCO`: the T/C is, setting by setting: (dose: 60.0 mg/kg/injection, schedule: Q01DX005 (ip), vehicle: saline) 101 % of control; (dose: 120.0 mg/kg/injection, schedule: Q01DX005 (ip), vehicle: saline) 108 % of control; (dose: 240.0 mg/kg/injection, schedule: Q01DX005 (ip), vehicle: saline) 99 % of control.
Turning to `CCOC(=O)CCN1CC=CCC1`, the T/C reads like this: under setting [8], 105 % of control; under setting [9], 102 % of control; under setting [10], 102 % of control.
For `CC(/C=C/C(=O)NO)=C\C(C)C(=O)c1ccc(N(C)C)cc1` (centres undefined), the T/C by setting is: (dose: 2.19 mg/kg/injection, schedule: Q01DX009 (ip), vehicle: Klucel (hydroxypropylcellulose) (HPC)) 107 % of control; (dose: 4.38 mg/kg/injection, schedule: Q01DX009 (ip), vehicle: Klucel (hydroxypropylcellulose) (HPC)) 114 % of control; (dose: 8.75 mg/kg/injection, schedule: Q01DX009 (ip), vehicle: Klucel (hydroxypropylcellulose) (HPC)) 122 % of control and 96 % of control; (dose: 8.75 mg/kg/injection, schedule: Q01DX009 (ip), vehicle: saline with Tween-80) 152 % of control; (dose: 17.5 mg/kg/injection, schedule: Q01DX009 (ip), vehicle: Klucel (hydroxypropylcellulose) (HPC)) 91 % of control; (dose: 17.5 mg/kg/injection, schedule: Q01DX009 (ip), vehicle: saline with Tween-80) 90 % of control.
In the case of `CC(C)(S)C(N)C(=O)O` (centres undefined), the T/C under setting [2] was 98 % of control, the T/C under setting [3] was 105 % of control and the T/C under setting [4] is 94 % of control.
